In brackets after ≈: the same amount, converted by molar mass. Read-outs that look alike come from different tables or passages of the source.
How the values were obtained:
Format in all cases: cell-based
[1] = test system: S. aureus UC-20206; assay: Determination of minimum inhibitory concentration (microdilution); conditions: Staphylococcus aureus, UC20206, 18 h
[2] = test system: S. epidermidis UC-20207; assay: as above; conditions: Staphylococcus epidermidis, UC20207; S. epidermidis UC-20207; 18 h; read-out: MIC (minimum inhibitory concentration)
[3] = test system: S. epidermidis RP62A; assay: as above; conditions: Staphylococcus epidermidis; S. epidermidis RP62A; 18 h; read-out: MIC (minimum inhibitory concentration)
[4] = test system: S. epidermidis RP62A; assay: Time course adherence assay (prophylactic and delayed treatment); conditions: for inhibition at 1 µg/mL / inhibition at 2 µg/mL / inhibition at 4 µg/mL / inhibition at 8 µg/mL: Staphylococcus epidermidis, read-out: Percent inhibition of bacterial adherence relative to controls
Experimental: (§1) Drug effects on bacterial adherence were measured 18 hours after treatment initiation using a quantitative spectrophotometric assay.
(§2) Relative inhibition of adherence was expressed by the following equation: (OD of control well−OD of treated well/OD of control well)×100, where OD is the mean optical density of six replicate wells from two separate experiments (three replicates per experiment). Control was defined as infected, drug-free cultures.
(§3) The primary efficacy variable in this study was the measurement of adherent bacteria to polystyrene surfaces after 18 hours to 24 hours of growth. To determine whether statistically significant differences existed between treatments (4×MIC, 2×MIC, MIC, and ½ MIC) compared with the infected-nontreated controls, multiple comparisons according to Dunnett's test (Montgomery, Design and Analysis of Experiments (1991)) were applied for each clinical strain. Differences were considered statistically significant when p<0.05.

[5] = test system: S. epidermidis UC-20207; assay: as above; conditions: for inhibition at 1 µg/mL / inhibition at 2 µg/mL / inhibition at 4 µg/mL / inhibition at 80 µg/mL: Staphylococcus epidermidis, read-out: Percent inhibition of bacterial adherence relative to controls; for Mean OD550: UC-20207
Experimental: as §1, §2, §3

[6] = test system: S. epidermidis UC-20208; assay: as above; conditions: for inhibition at 1 µg/mL / inhibition at 2 µg/mL / inhibition at 4 µg/mL / inhibition at 8 µg/mL: Staphylococcus epidermidis, read-out: Percent inhibition of bacterial adherence relative to controls; for Mean OD550: UC-20208
Experimental: as §1, §2, §3

[7] = test system: S. epidermidis isolates (UC-20207, UC-20208, and RP62A); assay: Time course adherence assay, summary over three S. epidermidis isolates; conditions: for mean inhibitory effects on staphylococcal adherence: subtherapeutic (one-half MIC)
Experimental: as §1, §2, §3

[8] = 1.0 μg/ml, treatment 0 h post-infection
[9] = 1.0 μg/ml, treatment 2 h post-infection
[10] = 1.0 μg/ml, treatment 4 h post-infection
[11] = 1.0 μg/ml, treatment 6 h post-infection
[12] = 2.0 μg/ml (MIC), treatment 0 h post-infection
[13] = 2.0 μg/ml (MIC), treatment 2 h post-infection
[14] = 2.0 μg/ml (MIC), treatment 4 h post-infection
[15] = 2.0 μg/ml (MIC), treatment 6 h post-infection
[16] = 4.0 μg/ml, treatment 0 h post-infection
[17] = 4.0 μg/ml, treatment 2 h post-infection
[18] = 4.0 μg/ml, treatment 4 h post-infection
[19] = 4.0 μg/ml, treatment 6 h post-infection
[20] = 8.0 μg/ml, treatment 0 h post-infection
[21] = 8.0 μg/ml, treatment 2 h post-infection
[22] = 8.0 μg/ml, treatment 4 h post-infection
[23] = 8.0 μg/ml, treatment 6 h post-infection

`CC(=O)NC[C@H]1CN(c2ccc(N3CCOCC3)c(F)c2)C(=O)O1` [Linezolid, (S)-N-[[3-[3-fluoro-4-(4-morpholinyl)phenyl]-2-oxo-5-oxazolidinyl]methyl]acetamide] was tested, and the MIC [1] was 4 µg/mL (≈ 11.9 µM), the MIC [2] was 2 µg/mL (≈ 5.93 µM) and the MIC [3] was 2 µg/mL (≈ 5.93 µM). For the same compound, the “Mean OD550” value [4, 8] was 0.000 ± 0.002, the “Mean OD550” value [4, 9] was 0.000 ± 0.000 and the “Mean OD550” value [4, 10] was 0.000 ± 0.001. For the same compound, the “Mean OD550” value [4, 11] was 0.274 ± 0.183, the “Mean OD550” value [4, 12] was 0.004 ± 0.004 and the “Mean OD550” value [4, 13] was 0.001 ± 0.001. For the same compound, the “Mean OD550” value [4, 14] was 0.003 ± 0.005, the “Mean OD550” value [4, 15] was 0.083 ± 0.067 and the “Mean OD550” value [4, 16] was 0.002 ± 0.002. For the same compound, the “Mean OD550” value [4, 17] was 0.003 ± 0.002, the “Mean OD550” value [4, 18] was 0.002 ± 0.004 and the “Mean OD550” value [4, 19] was 0.082 ± 0.051. The “Mean OD550” value [4, 20] was 0.002 ± 0.002, the “Mean OD550” value [4, 21] was 0.003 ± 0.001 and the “Mean OD550” value [4, 22] was 0.000 ± 0.001. The “Mean OD550” value [4, 23] was 0.021 ± 0.010, the inhibition at 1 µg/mL ([4]; 0 h) was 100% and the inhibition at 2 µg/mL ([4]; 0 h) was 99.8%. It also gave an inhibition at 4 µg/mL ([4]; 0 h) of 99.9%, an inhibition at 8 µg/mL ([4]; 0 h) of 99.9% and an inhibition at 1 µg/mL ([4]; 2 h) of 100%. For the same compound, the inhibition at 2 µg/mL ([4]; 2 h) was 99.9%, the inhibition at 4 µg/mL ([4]; 2 h) was 99.9% and the inhibition at 8 µg/mL ([4]; 2 h) was 99.8%. For the same compound, the inhibition at 1 µg/mL ([4]; 4 h) was 100%, the inhibition at 2 µg/mL ([4]; 4 h) was 99.8% and the inhibition at 4 µg/mL ([4]; 4 h) was 99.8%. It also gave an inhibition at 8 µg/mL ([4]; 4 h) of 100%, an inhibition at 1 µg/mL ([4]; 6 h) of 78.4% and an inhibition at 2 µg/mL ([4]; 6 h) of 93.4%. The inhibition at 4 µg/mL ([4]; 6 h) was 93.5%, the inhibition at 8 µg/mL ([4]; 6 h) was 98.4% and the inhibition at 1 µg/mL ([5]; UC20207, 0 h) was 96.5%. It also gave an inhibition at 2 µg/mL ([5]; UC20207, 0 h) of 99%, an inhibition at 4 µg/mL ([5]; UC20207, 0 h) of 99.6% and an inhibition at 80 µg/mL ([5]; UC20207, 0 h) of 99.8%. It also gave an inhibition at 1 µg/mL ([5]; UC20207, 2 h) of 97.5%, an inhibition at 2 µg/mL ([5]; UC20207, 2 h) of 99.8% and an inhibition at 4 µg/mL ([5]; UC20207, 2 h) of 99.7%. It also gave an inhibition at 80 µg/mL ([5]; UC20207, 2 h) of 99.6%, an inhibition at 1 µg/mL ([5]; UC20207, 4 h) of 68.4% and an inhibition at 2 µg/mL ([5]; UC20207, 4 h) of 87.8%. It also gave an inhibition at 4 µg/mL ([5]; UC20207, 4 h) of 99.2%, an inhibition at 80 µg/mL ([5]; UC20207, 4 h) of 99% and an inhibition at 1 µg/mL ([5]; UC20207, 6 h) of 0%. It also gave an inhibition at 2 µg/mL ([5]; UC20207, 6 h) of 0%, an inhibition at 4 µg/mL ([5]; UC20207, 6 h) of 41.4% and an inhibition at 80 µg/mL ([5]; UC20207, 6 h) of 75.1%. The “Mean OD550” value [5, 8] was 0.084 ± 0.049, the “Mean OD550” value [5, 9] was 0.064 ± 0.046 and the “Mean OD550” value [5, 10] was 0.921 ± 0.119. The “Mean OD550” value [5, 11] was 2.757 ± 0.173, the “Mean OD550” value [5, 12] was 0.024 ± 0.005 and the “Mean OD550” value [5, 13] was 0.004 ± 0.002. The “Mean OD550” value [5, 14] was 0.356 ± 0.418, the “Mean OD550” value [5, 15] was 2.938 ± 0.119 and the “Mean OD550” value [5, 16] was 0.009 ± 0.004. The “Mean OD550” value [5, 17] was 0.007 ± 0.001, the “Mean OD550” value [5, 18] was 0.022 ± 0.010 and the “Mean OD550” value [5, 19] was 1.558 ± 0.094. For the same compound, the “Mean OD550” value ([5]; linezolid 80 μg/ml, treatment 0 h post-infection) was 0.005 ± 0.002, the “Mean OD550” value ([5]; linezolid 80 μg/ml, treatment 2 h post-infection) was 0.009 ± 0.003 and the “Mean OD550” value ([5]; linezolid 80 μg/ml, treatment 4 h post-infection) was 0.028 ± 0.020. The “Mean OD550” value ([5]; linezolid 80 μg/ml, treatment 6 h post-infection) was 0.662 ± 0.103, the inhibition at 1 µg/mL ([6]; UC20208, 0 h) was 99.9% and the inhibition at 2 µg/mL ([6]; UC20208, 0 h) was 99.9%. For the same compound, the inhibition at 4 µg/mL ([6]; UC20208, 0 h) was 99.8%, the inhibition at 8 µg/mL ([6]; UC20208, 0 h) was 100% and the inhibition at 1 µg/mL ([6]; UC20208, 2 h) was 99.8%. The inhibition at 2 µg/mL ([6]; UC20208, 2 h) was 99.8%, the inhibition at 4 µg/mL ([6]; UC20208, 2 h) was 99.7% and the inhibition at 8 µg/mL ([6]; UC20208, 2 h) was 99.7%. It also gave an inhibition at 1 µg/mL ([6]; UC20208, 4 h) of 22.1%, an inhibition at 2 µg/mL ([6]; UC20208, 4 h) of 100% and an inhibition at 4 µg/mL ([6]; UC20208, 4 h) of 100%. It also gave an inhibition at 8 µg/mL ([6]; UC20208, 4 h) of 100%, an inhibition at 1 µg/mL ([6]; UC20208, 6 h) of 0% and an inhibition at 2 µg/mL ([6]; UC20208, 6 h) of 0%. The inhibition at 4 µg/mL ([6]; UC20208, 6 h) was 56.8%, the inhibition at 8 µg/mL ([6]; UC20208, 6 h) was 89.1% and the “Mean OD550” value [6, 8] was 0.001 ± 0.002. For the same compound, the “Mean OD550” value [6, 9] was 0.003 ± 0.001, the “Mean OD550” value [6, 10] was 0.856 ± 0.472 and the “Mean OD550” value [6, 11] was 1.127 ± 0.133. For the same compound, the “Mean OD550” value [6, 12] was 0.001 ± 0.001, the “Mean OD550” value [6, 13] was 0.003 ± 0.000 and the “Mean OD550” value [6, 14] was 0.000 ± 0.003. The “Mean OD550” value [6, 15] was 1.602 ± 0.300, the “Mean OD550” value [6, 16] was 0.002 ± 0.001 and the “Mean OD550” value [6, 17] was 0.004 ± 0.001. The “Mean OD550” value [6, 18] was 0.000 ± 0.001, the “Mean OD550” value [6, 19] was 0.363 ± 0.280 and the “Mean OD550” value [6, 20] was 0.000 ± 0.001. The “Mean OD550” value [6, 21] was 0.004 ± 0.001, the “Mean OD550” value [6, 22] was 0.000 ± 0.003 and the “Mean OD550” value [6, 23] was 0.092 ± 0.053. For the same compound, the “inhibitory effects on adherence” value ([7]; 4×MIC, 6-hour delay, mean of three strains) was 87.5%±11.7, the “mean inhibitory effects on staphylococcal adherence” value ([7]; 2 h delayed treatment, mean of three strains) was 99.1%±1.4 and the “mean inhibitory effects on staphylococcal adherence” value ([7]; 4 h delayed treatment, mean of three strains) was 63.5%±39.2. The anti-adhesion activity ([7]; therapeutic levels (≧MIC), 2- and 4-hour deferred treatments) was “potent anti-adhesion activity”.

Source: US7322965B2, “Infection-resistant medical devices” (priority 2002, dated 2008)
